The text below walks through data of patent publication US11166924B2, “N-methyl-d-aspartate receptor allosteric modulators and methods for their use” (Qingdao Primedicine Pharmaceutical Company, Ltd., priority 2016, dated 2021).

The structures appear in SMILES notation.

Experiment [1] has as its target T1, GluN1/GluN2A-containing NMDARs (Rattus norvegicus, UniProt P35439+Q00959).
T1 construct: endogenous in cells; host or cells: primary rat cortical neurons, 12-14 days in culture
Kind of experiment: Ca2+ influx assay (Fluo-4) in primary cultured rat neurons. The experiment is classed as cell-based. How it is done: Rat neurons isolated from the entire cortex were plated onto poly-d-lysine-coated 96-well plates. After 12-14 days in culture, the level of intracellular calcium was assayed using the Fluo-4 No Wash calcium assay kit according to the manufacturer's protocol (Thermo Fisher Scientific). In brief, the neuronal culture medium was removed and replaced with a calcium assay buffer (CAB) containing […], 20 mM HEPES, 2.5 mM probenacid, and Fluo4-NW dye mix (pH 7.4; Thermo Fisher Scientific). The cells were then incubated for 45 minutes at 37° C. for dye loading and then 15 minutes at 25° C. To isolate calcium signals mediated by NMDARs, NMDA was used as an agonist (10 μM), and 2 μM glycine were added. The antagonist […] was used to block the GluN1/GluN2A NMDARs. The calcium fluorescence measurement was performed at 25° C. after 60 seconds of recording with a FLEXStation II benchtop scanning fluorometer (Molecular Devices); then, the NMDAR agonist NMDA (10 μM)/glycine (2 μM) was added at 180 seconds. Fluorescence plate reading continued for a total of 30 mins with use of an excitation of 485 nm, an emission of 538 nm, and a cutoff of […]. The data were recorded using SoftMax Pro software (Molecular Devices). […]

For experiment [2], the target named is T2, GluN1/GluN2A^M112I (Rattus norvegicus, UniProt P35439+Q00959, M112I).
T2 construct: expressed in transfected cells; host or cells: HEK293
T2 sequence (Q00959 23-1464 M112I, other chains not shown): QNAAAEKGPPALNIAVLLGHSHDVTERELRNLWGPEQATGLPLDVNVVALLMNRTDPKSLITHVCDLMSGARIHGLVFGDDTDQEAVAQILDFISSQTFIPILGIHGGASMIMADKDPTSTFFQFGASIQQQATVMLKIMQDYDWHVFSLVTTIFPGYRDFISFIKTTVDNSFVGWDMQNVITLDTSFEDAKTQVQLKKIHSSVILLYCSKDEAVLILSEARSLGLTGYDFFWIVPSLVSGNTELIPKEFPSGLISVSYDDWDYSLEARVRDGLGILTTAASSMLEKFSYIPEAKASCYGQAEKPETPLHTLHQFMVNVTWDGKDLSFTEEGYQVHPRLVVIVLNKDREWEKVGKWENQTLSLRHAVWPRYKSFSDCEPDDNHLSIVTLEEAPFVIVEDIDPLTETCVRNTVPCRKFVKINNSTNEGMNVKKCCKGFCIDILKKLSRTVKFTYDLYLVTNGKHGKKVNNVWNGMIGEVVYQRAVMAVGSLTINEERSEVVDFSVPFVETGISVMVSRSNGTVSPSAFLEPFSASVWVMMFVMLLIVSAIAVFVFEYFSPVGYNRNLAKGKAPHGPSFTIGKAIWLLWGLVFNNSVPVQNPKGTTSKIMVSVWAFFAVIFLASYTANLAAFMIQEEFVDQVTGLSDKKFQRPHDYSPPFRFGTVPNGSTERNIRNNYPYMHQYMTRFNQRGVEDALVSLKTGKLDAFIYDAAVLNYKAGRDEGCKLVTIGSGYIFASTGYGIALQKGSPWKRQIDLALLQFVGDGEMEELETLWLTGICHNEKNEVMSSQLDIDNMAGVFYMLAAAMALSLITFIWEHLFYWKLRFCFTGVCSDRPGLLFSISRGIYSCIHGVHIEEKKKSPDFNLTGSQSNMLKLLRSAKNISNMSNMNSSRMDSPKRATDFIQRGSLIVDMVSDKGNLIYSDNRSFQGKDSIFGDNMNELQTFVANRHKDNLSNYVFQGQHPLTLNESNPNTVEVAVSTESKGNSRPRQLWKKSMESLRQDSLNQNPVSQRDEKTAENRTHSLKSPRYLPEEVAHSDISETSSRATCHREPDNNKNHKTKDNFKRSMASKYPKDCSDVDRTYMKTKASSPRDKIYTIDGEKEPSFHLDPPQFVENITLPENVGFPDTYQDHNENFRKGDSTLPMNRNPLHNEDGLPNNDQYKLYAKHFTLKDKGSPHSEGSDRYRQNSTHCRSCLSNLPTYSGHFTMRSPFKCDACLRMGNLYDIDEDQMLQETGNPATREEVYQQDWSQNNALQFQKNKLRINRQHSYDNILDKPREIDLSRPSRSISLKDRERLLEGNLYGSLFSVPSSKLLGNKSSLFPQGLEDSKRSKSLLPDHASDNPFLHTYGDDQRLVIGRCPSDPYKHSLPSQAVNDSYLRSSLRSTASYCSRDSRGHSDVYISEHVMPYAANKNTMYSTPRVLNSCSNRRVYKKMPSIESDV
Kind of experiment: Patch clamp in HEK293 cells expressing mutant GluN1/GluN2A M112I. It counts as cell-based. On the procedure: Whole cell patch-clamp recordings were performed under voltage-clamp mode using an Axopatch 200B or 1D patch-clamp amplifier (Molecular Devices). Whole-cell currents were recorded at a holding potential of −60 mV unless indicated elsewhere, and signals were filtered at 2 kHz, digitized at 10 kHz (Digidata 1322A). Recording pipettes (3-5 MΩ) were filled with intracellular solution containing (mM): CsCl 140, HEPES 10, Mg-ATP 4, QX-314 5, pH 7.20; osmolarity, 290-295 mOsm. BAPTA (10 mM) was added in the intracellular solution (unless otherwise specified). The coverslips were continuously superfused with extracellular solution containing (mM): NaCl 140, KCl 5.4, HEPES 10, CaCl2 1.3, glucose 20, pH 7.4; osmolarity, 305-315 mOsm. NMDA-induced currents were applied by NMDA through perfusion fast-step (Warner Instruments). With perfusion fast-step system, NMDA application was achieved by using a two-square barrel glass tubing and depending on the age of the cultured neurons, CNQX (10 μM), TTX (0.5 μM) or BIC (10 μM) were added in the extracellular solution to minimize the activation of ionotropic glutamate receptors and voltage-gated sodium channels, respectively. All experiments were performed at room temperature. Recordings from at least six HEK293 cells/neurons were performed for all active compounds. […]
On the technique in general: In patch-clamp work, channel activity is measured electrically.

Experiment [3] deals with T3, GluN2A component of NMDAR currents in hippocampal slices (Mus musculus, UniProt P35436+P35438).
T3 construct: from tissue; host or cells: mouse hippocampal slices, CA1 pyramidal neurons
T3 sequence (P35436 23-1464, other chains not shown): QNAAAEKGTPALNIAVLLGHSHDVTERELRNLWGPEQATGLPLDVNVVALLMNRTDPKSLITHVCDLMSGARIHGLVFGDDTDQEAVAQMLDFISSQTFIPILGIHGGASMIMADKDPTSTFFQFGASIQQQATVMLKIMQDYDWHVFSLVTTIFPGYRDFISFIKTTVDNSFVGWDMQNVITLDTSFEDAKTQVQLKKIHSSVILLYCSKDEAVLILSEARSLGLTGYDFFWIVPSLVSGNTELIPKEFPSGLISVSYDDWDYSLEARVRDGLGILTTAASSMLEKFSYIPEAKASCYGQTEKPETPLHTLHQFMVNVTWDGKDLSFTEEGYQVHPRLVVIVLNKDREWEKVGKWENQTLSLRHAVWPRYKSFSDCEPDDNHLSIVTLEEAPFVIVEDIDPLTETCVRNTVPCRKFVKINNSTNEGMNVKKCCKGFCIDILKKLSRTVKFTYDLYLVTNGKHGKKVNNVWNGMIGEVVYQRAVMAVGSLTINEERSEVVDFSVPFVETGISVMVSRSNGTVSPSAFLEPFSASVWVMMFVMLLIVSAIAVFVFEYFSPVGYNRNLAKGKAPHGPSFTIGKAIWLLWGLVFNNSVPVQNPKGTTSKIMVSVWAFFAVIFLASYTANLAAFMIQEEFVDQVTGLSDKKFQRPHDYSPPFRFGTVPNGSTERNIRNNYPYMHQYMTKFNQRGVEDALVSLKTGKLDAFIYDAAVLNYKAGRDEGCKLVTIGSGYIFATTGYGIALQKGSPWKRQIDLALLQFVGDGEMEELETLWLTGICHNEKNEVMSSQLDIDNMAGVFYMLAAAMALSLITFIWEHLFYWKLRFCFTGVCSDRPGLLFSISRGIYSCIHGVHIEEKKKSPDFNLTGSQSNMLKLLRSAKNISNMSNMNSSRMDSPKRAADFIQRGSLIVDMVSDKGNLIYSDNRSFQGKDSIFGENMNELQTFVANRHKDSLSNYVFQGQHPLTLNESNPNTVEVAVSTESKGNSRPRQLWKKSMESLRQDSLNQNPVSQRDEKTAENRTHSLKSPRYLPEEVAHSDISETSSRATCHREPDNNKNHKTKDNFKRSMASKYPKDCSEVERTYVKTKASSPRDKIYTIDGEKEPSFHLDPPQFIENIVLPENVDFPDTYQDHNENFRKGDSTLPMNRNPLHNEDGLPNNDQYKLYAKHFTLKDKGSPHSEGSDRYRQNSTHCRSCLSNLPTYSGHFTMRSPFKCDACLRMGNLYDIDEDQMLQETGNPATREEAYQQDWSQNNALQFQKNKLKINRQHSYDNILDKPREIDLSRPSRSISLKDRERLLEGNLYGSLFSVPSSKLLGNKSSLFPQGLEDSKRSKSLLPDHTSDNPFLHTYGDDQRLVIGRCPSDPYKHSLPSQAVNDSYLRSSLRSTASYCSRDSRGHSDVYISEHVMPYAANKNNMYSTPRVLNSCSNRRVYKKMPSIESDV
Kind of experiment: Slice recordings, GluN2A component of synaptic NMDAR currents. Conditions: FIG. 18. From the text:
6-8 week old C57/Bl6 mice or rats underwent cervical dislocation followed by decapitation. The brain was immediately transferred to an ice cold NMDG-based cutting solution consisting of: (in mM): 120 NMDG, 2.5 KCl, 1.2 NaH2PO4, 25 NaHCO3, 1.0 CaCl2, 7.0 MgCl2, 2.4 Na-pyruvate, 1.3 Na-ascorbate, 20 D-glucose with pH adjusted to 7.35 using HCl acid (unless stated, all chemicals and drugs were purchased from Sigma or BioShop, Canada). The hippocampus was dissected out and transverse hippocampal slices (400 μm) were obtained using a manual tissue chopper (Stoelting, Wood Dale, Ill., USA). Slices recovered in a heated (30° C.) incubating chamber for 1 hr which contained ACSF composed of (in mM): 124 NaCl, 3 KCl, 1.25 NaH2PO4, 1 MgSO47H2O, 2 CaCl2), 26 NaHCO3 and 15 D-glucose which was bubbled continuously with carbogen (95% O2/5% CO2) (pH to 7.3). After 30 additional minutes at room temperature, slices were transferred to a submerged recording chamber and were perfused continuously with carbogenated ACSF (2-3 ml/min). Whole-cell recordings of CA1 pyramidal neurons were performed using the “blind” method with a MultiClamp 700B amplifier. EPSCs (excitatory post synaptic currents) were elicited by stimulating the SC pathway. For isolation of NMDAR currents, cells were voltage clamped at +40 mV. […]

T1 sequence (Q00959 23-1464, other chains not shown): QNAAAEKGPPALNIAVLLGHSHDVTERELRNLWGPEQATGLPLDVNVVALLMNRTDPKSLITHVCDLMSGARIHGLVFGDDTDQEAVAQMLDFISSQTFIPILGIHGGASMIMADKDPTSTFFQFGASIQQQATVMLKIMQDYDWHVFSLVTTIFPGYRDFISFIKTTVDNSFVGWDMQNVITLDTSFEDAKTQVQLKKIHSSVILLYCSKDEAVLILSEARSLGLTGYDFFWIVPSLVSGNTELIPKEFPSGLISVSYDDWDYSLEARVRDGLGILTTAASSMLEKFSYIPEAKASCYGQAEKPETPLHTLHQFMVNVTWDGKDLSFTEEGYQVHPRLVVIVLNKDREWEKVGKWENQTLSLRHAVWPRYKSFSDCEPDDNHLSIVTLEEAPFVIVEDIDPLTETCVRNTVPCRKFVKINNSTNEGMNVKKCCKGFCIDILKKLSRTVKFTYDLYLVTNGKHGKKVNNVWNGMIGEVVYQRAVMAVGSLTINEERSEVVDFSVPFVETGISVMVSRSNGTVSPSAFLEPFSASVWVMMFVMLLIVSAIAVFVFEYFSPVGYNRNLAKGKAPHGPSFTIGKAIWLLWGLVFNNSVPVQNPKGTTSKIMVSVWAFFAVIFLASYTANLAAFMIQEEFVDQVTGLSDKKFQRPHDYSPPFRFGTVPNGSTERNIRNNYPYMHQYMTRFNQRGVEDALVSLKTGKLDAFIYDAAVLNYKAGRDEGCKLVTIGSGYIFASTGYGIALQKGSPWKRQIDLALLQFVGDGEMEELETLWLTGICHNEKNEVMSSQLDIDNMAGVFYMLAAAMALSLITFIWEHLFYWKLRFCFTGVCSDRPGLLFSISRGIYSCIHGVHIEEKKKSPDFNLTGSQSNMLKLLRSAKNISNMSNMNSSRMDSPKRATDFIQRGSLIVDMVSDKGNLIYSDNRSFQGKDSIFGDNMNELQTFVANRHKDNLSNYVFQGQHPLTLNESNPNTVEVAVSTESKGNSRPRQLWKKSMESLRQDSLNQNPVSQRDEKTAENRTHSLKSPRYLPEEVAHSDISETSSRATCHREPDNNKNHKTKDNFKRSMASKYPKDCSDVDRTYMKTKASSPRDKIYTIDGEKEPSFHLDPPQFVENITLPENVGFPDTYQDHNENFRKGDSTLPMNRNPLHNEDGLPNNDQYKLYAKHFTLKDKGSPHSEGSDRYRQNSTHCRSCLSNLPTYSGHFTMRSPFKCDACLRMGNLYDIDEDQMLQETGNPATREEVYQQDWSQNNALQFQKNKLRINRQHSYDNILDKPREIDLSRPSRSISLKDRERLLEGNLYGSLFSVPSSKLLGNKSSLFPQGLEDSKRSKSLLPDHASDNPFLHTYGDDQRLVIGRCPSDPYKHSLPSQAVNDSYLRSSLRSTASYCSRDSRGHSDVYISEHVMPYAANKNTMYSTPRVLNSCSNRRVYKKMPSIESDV

Consider `CCOc1cc(Cl)c(Cl)c(/C=N/NC(=O)c2ccccc2Br)c1O` [Npam43, (E)-2-bromo-N′-(2,3-dichloro-5-ethoxy-6-hydroxybenzylidene)benzohydrazide], for which the “Ca2+ influx in response to Npam43 with co-applied NVP-AAM0077” value in experiment [1] (GluN2A antagonist co-applied) is listed as “marked reduction of Ca^2+ influx”. The “Ca2+ influx fluorescence signal” value in experiment [1] (NMDA 10 μM, glycine 2 μM) is “increased the Ca^2+ influx fluorescence signal”. In experiment [2] (Table 3), the Relative potentiation was determined as 255 ± 19%. Besides, the “Net Difference potentiation” value in experiment [2] (normalized to wild-type) is listed as “+22.2 ± 0.94%”. Moreover, the “Effect on GluN2A component of NMDAR currents” value in experiment [3] was “selectively potentiated the GluN2A component of NMDAR currents”.
